Measurements published in ChEMBL document CHEMBL4270535, “Facile synthesis of vanillin-based novel bischalcones identifies one that induces apoptosis and displays synergy with Artemisinin in killing chloroquine resistant Plasmodium falciparum” (Eur J Med Chem, 2018).
The source made the active and inactive calls. No cut-off for these calls is given here.

How the values were obtained:
Plasmodium falciparum [1] = assay: Induction of apoptosis in synchronized trophozoite stage of chloroquine-resistant Plasmodium falciparum INDO infected in human erythrocytes assessed as chromatin fragmentation at 8 uM after 24 hrs by agarose gel electrophoresis method; format: functional, organism-based
Plasmodium falciparum [2] = assay: Plasmodicidal activity against synchronized ring stage of chloroquine-resistant Plasmodium falciparum INDO infected in human erythrocytes assessed as parasite killing at 8 uM treated for 6 to 48 hrs followed by compound wash out measured after 48 to 90 hrs by Giemsa staining based microscopic analysis; format: functional, organism-based
[3] = Resistance index, ratio of IC50 for synchronized ring stage of chloroquine-resistant Plasmodium falciparum INDO infected in human erythrocytes to IC50 for synchronized ring stage of chloroquine-sensitive Plasmodium falciparum 3D7 infected in human erythrocytes; format: functional
Plasmodium falciparum [4] = assay: Synergistic plasmodicidal activity against synchronized ring stage of chloroquine-resistant Plasmodium falciparum INDO infected in human erythrocytes assessed as parasite killing at 2 times FIC100 treated for 6 to 48 hrs followed by compound wash out measured after 48 to 90 hrs followed by compound wash out measured after 48 to 90 hrs in presence of artemisinin by Giemsa staining based microscopic analysis; format: functional, organism-based
[5] = Selectivity index, ratio of IC50 for human HeLa cells to IC50 for synchronized ring stage of chloroquine-sensitive Plasmodium falciparum 3D7 infected in human erythrocytes; format: toxicity, cell-based; conditions: read-out: Ratio IC50
Plasmodium falciparum [6] = assay: Induction of apoptosis in synchronized trophozoite stage of chloroquine-resistant Plasmodium falciparum INDO infected in human erythrocytes assessed as parasite killing at 8 uM up to 24 hrs by Giemsa staining based microscopic analysis; format: functional, organism-based
Plasmodium falciparum [7] = assay: Synergistic plasmodicidal activity against synchronized trophozoite stage of chloroquine-resistant Plasmodium falciparum INDO infected in human erythrocytes assessed as parasite killing at FIC90 treated for 18 to 24 hrs followed by compound wash out measured after 48 to 54 hrs followed by compound wash out measured after 48 to 54 hrs in presence of chloroquine by Giemsa staining based microscopic analysis; format: functional, organism-based
Plasmodium falciparum [8] = assay: Synergistic antiplasmodial activity against synchronized schizont stage of chloroquine-resistant Plasmodium falciparum INDO infected in human erythrocytes assessed as parasite growth inhibition at FIC90 treated for 12 hrs followed by compound wash out measured after 48 hrs in presence of chloroquine by Giemsa staining based microscopic analysis; format: functional, organism-based
Plasmodium falciparum [9] = assay: Synergistic antiplasmodial activity against synchronized trophozoite stage of chloroquine-resistant Plasmodium falciparum INDO infected in human erythrocytes assessed as parasite growth inhibition at FIC90 treated for 18 to 24 hrs followed by compound wash out measured after 48 to 54 hrs in presence of chloroquine by Giemsa staining based microscopic analysis; format: functional, organism-based
Plasmodium falciparum [10] = assay: Synergistic antiplasmodial activity against synchronized ring stage of chloroquine-sensitive Plasmodium falciparum 3D7 infected in human erythrocytes assessed as FIC index in presence of chloroquine; format: functional
Plasmodium falciparum [11] = assay: Antiplasmodial activity against synchronized ring stage of chloroquine-resistant Plasmodium falciparum INDO infected in human erythrocytes assessed as parasite growth inhibition at 8 uM treated for 6 to 48 hrs by Giemsa staining based microscopic analysis; format: functional, organism-based
Plasmodium falciparum [12] = assay: Induction of apoptosis in synchronized trophozoite stage of chloroquine-resistant Plasmodium falciparum INDO infected in human erythrocytes assessed as activation of caspase-like protease at 8 uM after 12 hrs by Caspase FITC-VAD-FMK substrate based flow cytometry; format: functional, organism-based
Plasmodium falciparum [13] = assay: Induction of apoptosis in synchronized trophozoite stage of chloroquine-resistant Plasmodium falciparum INDO infected in human erythrocytes assessed as translocation of phosphatidylserine from inner to outer leaflet of plasma membrane at 8 uM after 12 hrs by Annexin-V/Alexa fluor-488 staining based fluorescence microscopic analysis; format: functional, organism-based
Plasmodium falciparum [14] = assay: Synergistic plasmodicidal activity against synchronized trophozoite stage of chloroquine-resistant Plasmodium falciparum INDO infected in human erythrocytes assessed as parasite killing at FIC90 treated for 18 to 24 hrs followed by compound wash out measured after 48 to 54 hrs followed by compound wash out measured after 48 to 54 hrs in presence of artemisinin by Giemsa staining based microscopic analysis; format: functional, organism-based
Plasmodium falciparum [15] = assay: Induction of apoptosis in synchronized trophozoite stage of chloroquine-resistant Plasmodium falciparum INDO infected in human erythrocytes assessed as activation of caspase-like protease at 8 uM after 12 hrs by Caspase FITC-VAD-FMK substrate based fluorescence microscopic analysis; format: functional, organism-based
Plasmodium falciparum [16] = assay: Antiplasmodial activity against synchronized ring stage of chloroquine-resistant Plasmodium falciparum Dd2 infected in human erythrocytes after 48 hrs by SYBR Green 1 dye based fluorescence assay; format: functional, organism-based; conditions: Dd2, 48 h
Plasmodium falciparum [17] = assay: Induction of apoptosis in synchronized trophozoite stage of chloroquine-resistant Plasmodium falciparum INDO infected in human erythrocytes assessed as chromatin fragmentation at 8 uM by Hoechst 33342 staining based fluorescence microscopic analysis; format: functional, organism-based; conditions: TDE = time-dependent effect
Plasmodium falciparum [18] = assay: Synergistic antiplasmodial activity against synchronized ring stage of chloroquine-resistant Plasmodium falciparum INDO infected in human erythrocytes assessed as parasite growth inhibition at FIC90 treated for 6 to 48 hrs followed by compound wash out measured after 48 to 90 hrs in presence of artemisinin by Giemsa staining based microscopic analysis; format: functional, organism-based
Plasmodium falciparum [19] = assay: Synergistic antiplasmodial activity against synchronized ring stage of chloroquine-resistant Plasmodium falciparum INDO infected in human erythrocytes assessed as parasite growth inhibition at 2 times FIC100 treated for 6 to 48 hrs followed by compound wash out measured after 48 to 90 hrs in presence of chloroquine by Giemsa staining based microscopic analysis; format: functional, organism-based
Plasmodium falciparum [20] = assay: Induction of apoptosis in synchronized trophozoite stage of chloroquine-resistant Plasmodium falciparum INDO infected in human erythrocytes assessed as translocation of phosphatidylserine from inner to outer leaflet of plasma membrane at 8 uM after 12 hrs by Annexin-V/Alexa fluor-488 staining based flow cytometry; format: functional, organism-based
Plasmodium falciparum [21] = assay: Synergistic antiplasmodial activity against synchronized trophozoite stage of chloroquine-resistant Plasmodium falciparum INDO infected in human erythrocytes assessed as parasite growth inhibition at 2 times FIC100 treated for 18 to 24 hrs followed by compound wash out measured after 48 to 54 hrs in presence of chloroquine by Giemsa staining based microscopic analysis; format: functional, organism-based
Plasmodium falciparum [22] = assay: Synergistic antiplasmodial activity against synchronized ring stage of chloroquine-sensitive Plasmodium falciparum 3D7 infected in human erythrocytes assessed as ratio of IC50 in absence of artemisinin to IC50 in presence of artemisinin; format: functional
Plasmodium falciparum [23] = assay: Antiplasmodial activity against synchronized trophozoite stage of chloroquine-resistant Plasmodium falciparum INDO infected in human erythrocytes assessed as parasite growth inhibition at 8 uM treated for 18 to 24 hrs by Giemsa staining based microscopic analysis; format: functional, organism-based
Plasmodium falciparum [24] = assay: Antiplasmodial activity against synchronized ring stage of chloroquine-resistant Plasmodium falciparum INDO infected in human erythrocytes after 48 hrs by SYBR Green 1 dye based fluorescence assay; format: functional, organism-based
Plasmodium falciparum [25] = assay: Synergistic antiplasmodial activity against synchronized ring stage of chloroquine-resistant Plasmodium falciparum INDO infected in human erythrocytes assessed as FIC index in presence of chloroquine; format: functional
[26] = Resistance index, ratio of IC50 for synchronized ring stage of chloroquine-resistant Plasmodium falciparum Dd2 infected in human erythrocytes to IC50 for synchronized ring stage of chloroquine-sensitive Plasmodium falciparum 3D7 infected in human erythrocytes; format: functional
Plasmodium falciparum [27] = assay: Plasmodicidal activity against synchronized schizont stage of chloroquine-resistant Plasmodium falciparum INDO infected in human erythrocytes assessed as parasite killing at 8 uM treated for 12 hrs followed by compound wash out measured after 48 hrs by Giemsa staining based microscopic analysis; format: functional, organism-based

SMILES: C=CCc1cc(/C=C/C(=O)c2cccc(C(=O)/C=C/c3cc(CC=C)c(OC)c(OC)c3)c2)cc(OC)c1OC
- Activity (Plasmodium falciparum [1]): Active
- Activity (Plasmodium falciparum [2]): Active
- Ratio IC50 [3]: 1.5
- Activity (Plasmodium falciparum [4]): Active
- selectivity ratio [5]: 11.2
- Activity (Plasmodium falciparum [6]): Active
- Activity (Plasmodium falciparum [7]): inactive
- Activity (Plasmodium falciparum [8]): Active
- Activity (Plasmodium falciparum [9]): Active
- fractional inhibitory concentration index (FICI) (Plasmodium falciparum [10]): 1.38 - 3.34
- Activity (Plasmodium falciparum [11]): Active
- Activity (Plasmodium falciparum [12]): Active
- Activity (Plasmodium falciparum [13]): Active
- Activity (Plasmodium falciparum [14]): inactive
- Activity (Plasmodium falciparum [15]): Active
- IC50 (Plasmodium falciparum [16]): 3.5 µM
- Activity (Plasmodium falciparum [17]): Tde
- Activity (Plasmodium falciparum [18]): Active
- Activity (Plasmodium falciparum [19]): Active
- Activity (Plasmodium falciparum [20]): Active
- Activity (Plasmodium falciparum [21]): Active
- Ratio IC50 (Plasmodium falciparum [22]): 20 - 311
- Activity (Plasmodium falciparum [23]): Active
- IC50 (Plasmodium falciparum [24]): 3.8 µM
- fractional inhibitory concentration index (FICI) (Plasmodium falciparum [25]): 0.7 - 1.23
- Ratio IC50 [26]: 1.4
- Activity (Plasmodium falciparum [27]): Active
